# US20250049970A1, “DLL3 TARGETING PEPTIDES AND CONSTRUCTS THEREOF” (MARIANA ONCOLOGY INC., priority 2023, published 2025)
# *1 amine or outer side, *2 acyl side, *3 side chain or, on linkers, in order; H or OH if unused. Where a SMILES comes first, the peptide text is derived from it. Bridges are numbered along the chain shown (N, C = ends). [ ]: non-standard residue; d: D form. The star is where a group is joined. ξ: configuration not given here. Ala(piperidin-4-yl) = O=C([C@H](CC1CCN([*:3])CC1)N[*:1])[*:2]; DOTA = O=C(O)CN1CCN(CC(=O)O)CCN(CC(=O)*)CCN(CC(=O)O)CC1; 2Nal = N[C@@H](Cc1ccc2ccccc2c1)C(=O)O; NMetBuAla = CN[C@@H](CC(C)(C)C)C(=O)O; tBuAla = CC(C)(C)C[C@H](N)C(=O)O; Thr(3ξ) = CC(O)[C@H](N)C(=O)O; αMeP = C[C@@]1(C(=O)O)CCCN1; CH2 = C([*:1])[*:2]
# T1: DLL3 (target ligand immobilized on a SA sensor chip via streptavidin capture) (Homo sapiens (Human), UniProt Q9NYJ7 27-492, limits assumed)
# T1 sequence: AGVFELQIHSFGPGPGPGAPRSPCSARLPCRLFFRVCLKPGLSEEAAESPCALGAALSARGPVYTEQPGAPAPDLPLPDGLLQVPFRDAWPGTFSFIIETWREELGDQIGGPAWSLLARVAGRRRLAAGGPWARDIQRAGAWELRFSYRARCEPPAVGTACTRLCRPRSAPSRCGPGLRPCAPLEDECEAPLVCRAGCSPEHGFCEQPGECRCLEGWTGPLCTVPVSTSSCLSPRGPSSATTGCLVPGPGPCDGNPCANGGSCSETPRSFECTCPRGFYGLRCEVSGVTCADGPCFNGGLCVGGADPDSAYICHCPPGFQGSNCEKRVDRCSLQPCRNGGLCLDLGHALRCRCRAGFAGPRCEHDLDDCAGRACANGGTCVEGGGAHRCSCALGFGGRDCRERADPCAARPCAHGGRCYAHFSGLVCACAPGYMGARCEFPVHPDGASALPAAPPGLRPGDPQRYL
# T2: DLL3 (Homo sapiens, UniProt Q9NYJ7)
# T2 sequence (Q9NYJ7 27-618): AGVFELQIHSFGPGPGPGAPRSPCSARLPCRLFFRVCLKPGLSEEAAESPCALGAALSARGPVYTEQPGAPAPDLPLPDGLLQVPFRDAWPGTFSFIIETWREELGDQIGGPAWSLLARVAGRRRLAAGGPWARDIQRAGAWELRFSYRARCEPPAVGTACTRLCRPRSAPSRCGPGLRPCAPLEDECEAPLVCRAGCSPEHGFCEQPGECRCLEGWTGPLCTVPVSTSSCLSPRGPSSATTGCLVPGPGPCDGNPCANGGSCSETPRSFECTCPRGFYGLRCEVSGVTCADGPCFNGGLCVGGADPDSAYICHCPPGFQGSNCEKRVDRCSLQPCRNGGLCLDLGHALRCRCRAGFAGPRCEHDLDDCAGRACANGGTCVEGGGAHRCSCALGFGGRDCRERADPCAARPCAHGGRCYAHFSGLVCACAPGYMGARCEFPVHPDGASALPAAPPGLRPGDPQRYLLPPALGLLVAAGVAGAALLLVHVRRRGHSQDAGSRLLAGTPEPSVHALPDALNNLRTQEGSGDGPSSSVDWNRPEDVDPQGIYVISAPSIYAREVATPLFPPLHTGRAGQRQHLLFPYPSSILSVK
# B1: SEQ ID NO 78 (peptide)
# peptide: Ac-MVWVPCEWDDCFY-NH2
# modifications: disulfide 6-11
# SMILES: CSCC[C@H](NC(C)=O)C(=O)N[C@H](C(=O)N[C@@H](Cc1c[nH]c2ccccc12)C(=O)N[C@H](C(=O)N1CCC[C@H]1C(=O)N[C@H]1CSSC[C@@H](C(=O)N[C@@H](Cc2ccccc2)C(=O)N[C@@H](Cc2ccc(O)cc2)C(N)=O)NC(=O)[C@H](CC(=O)O)NC(=O)[C@H](CC(=O)O)NC(=O)[C@H](Cc2c[nH]c3ccccc23)NC(=O)[C@H](CCC(=O)O)NC1=O)C(C)C)C(C)C
# B2: SEQ ID NO 76 (peptide)
# peptide: Ac-MDCNFFDCDAWTW-NH2
# modifications: disulfide 3-8
# SMILES: CSCC[C@H](NC(C)=O)C(=O)N[C@@H](CC(=O)O)C(=O)N[C@H]1CSSC[C@@H](C(=O)N[C@@H](CC(=O)O)C(=O)N[C@@H](C)C(=O)N[C@@H](Cc2c[nH]c3ccccc23)C(=O)N[C@H](C(=O)N[C@@H](Cc2c[nH]c3ccccc23)C(N)=O)[C@@H](C)O)NC(=O)[C@H](CC(=O)O)NC(=O)[C@H](Cc2ccccc2)NC(=O)[C@H](Cc2ccccc2)NC(=O)[C@H](CC(N)=O)NC1=O
# B3: SEQ ID NO 67 (peptide)
# peptide: Ac-MWTICADWAQCWP-NH2
# modifications: disulfide 5-11
# SMILES: CC[C@H](C)[C@H](NC(=O)[C@@H](NC(=O)[C@H](Cc1c[nH]c2ccccc12)NC(=O)[C@H](CCSC)NC(C)=O)[C@@H](C)O)C(=O)N[C@H]1CSSC[C@@H](C(=O)N[C@@H](Cc2c[nH]c3ccccc23)C(=O)N2CCC[C@H]2C(N)=O)NC(=O)[C@H](CCC(N)=O)NC(=O)[C@H](C)NC(=O)[C@H](Cc2c[nH]c3ccccc23)NC(=O)[C@H](CC(=O)O)NC(=O)[C@H](C)NC1=O
# Biological target: T1, DLL3 (target ligand immobilized on a SA …)
# Test: SPR, Biacore S200, target ligand on SA chip, 25 C, 1:1 fit
# Conditions: not given
# Description: Target ligand was immobilized on a SA sensor chip via streptavidin capture. A reference surface was set up for nonspecific binding and refractive index changes. For analysis of the kinetics of interactions, varying concentrations of peptides were injected at a flow rate of 50 μL/minute using running buffer containing 20 mM phosphate buffer with 2.7 mM KCl, 137 mM NaCl and 0.05% Surfactant P20. Sensorgram curves were fitted with 1:1 binding model, and affinity and kinetic parameters were obtained using either Biacore S200 evaluation software 1.1.1 or Biacore Insight evaluation 4.0.
row,Kd [nM],Molecule
1,68,B1
2,290,B2
3,72,B3

# Tested on: nude mice bearing SHP-77 tumors
# Test: Ex vivo biodistribution of radiolabeled peptides (% IA/g) in nude mice bearing SHP-77 tumors
# Conditions: [177Lu]Lu labelling, 24 hours post-injection, intravenous
# Description: Mice were intravenously injected (via the lateral tail vein) with a bolus dose of the radiolabeled peptides for ex vivo biodistribution studies when tumor volumes were in range of 200-400 mm^3 for xenograft mice and when age of the mice was 5-7 weeks for tumor naïve mice studies. To assess the amount of radionuclide injected into individual mice the syringe was assayed in a dose calibrator before and after injection for [^177Lu]Lu-peptide, then the injected dose was determined from the weight difference and concentration of the radionuclide solution.
# Mice were euthanized at pre-determined time points and selected tissues were resected and collected into pre-weighed tubes. The tubes were then reweighed post resection, the difference giving the weight of each tissue. Radioactivity in each tissue was measured using a gamma counter. Counts were decay corrected to the time of injection and percentage of injected activity per gram (% IA/g) was calculated for each tissue based on the injected activity into each individual mouse. Injected activity was converted to counts based on the sensitivity of the gamma counter. The counts in tissue were then converted to the percentage of injected activity and this was divided by the mass of tissue to give % IA/g.
kidney uptake (% IA/g),tumor uptake (% IA/g),Molecule
C (“C” represents 0 < % IA/g ≤ 10 in),B (“B” represents % IA/g > 5 in tumor),"CC(=O)N[C@@H](Cc1c[nH]c2ccccc12)C(=O)N[C@H](C(=O)N(C)[C@@H](CC(C)(C)C)C(=O)N[C@H]1CSCSC[C@@H](C(=O)N[C@@H](Cc2c[nH]c3ccccc23)C(=O)N2CCC[C@@]2(C)C(=O)O)NC(=O)[C@H](CC(=O)O)NC(=O)[C@H](CCCCNC(=O)CN2CCN(CC(=O)O)CCN(CC(=O)O)CCN(CC(=O)O)CC2)NC(=O)[C@H](Cc2ccc3ccccc3c2)NC(=O)[C@H](CC(N)=O)NC(=O)[C@H](CC2CCNCC2)NC1=O)C(C)O (stereo partly drawn) [compound 443, Ac-W-T-(NMe-tBuAla)-C(1)-[3-(4-piperidinyl)-Ala]-N-(2Nal)-Lys(DOTA)-D-C(1)-W-(aMe-P)-CO2H] (Ac-W[Thr(3ξ)][NMetBuAla]C[Ala(piperidin-4-yl)]N[2Nal]K(DOTA)DCW[αMeP]-OH; linker 4-10 via CH2)"
C (“C” represents 0 < % IA/g ≤ 10 in),B (“B” represents % IA/g > 5 in tumor),"CC(=O)N[C@@H](Cc1c[nH]c2ccccc12)C(=O)N[C@H](C(=O)N[C@@H](CC(C)(C)C)C(=O)N[C@H]1CSCSC[C@@H](C(=O)N[C@@H](Cc2c[nH]c3ccccc23)C(=O)N2CCC[C@@]2(C)C(N)=O)NC(=O)[C@H](CC(=O)O)NC(=O)[C@H](CCCCNC(=O)CN2CCN(CC(=O)O)CCN(CC(=O)O)CCN(CC(=O)O)CC2)NC(=O)[C@H](Cc2ccc3ccccc3c2)NC(=O)[C@H](CC(N)=O)NC(=O)[C@H](CC2CCNCC2)NC1=O)[C@@H](C)O [compound 437, Ac-W-T-(t-Bu-Ala)-C(1)-[3-(4-piperidinyl)-Ala]-N-(2Nal)-Lys(DOTA)-D-C(1)-W-(aMe-P)-CONH2] (Ac-WT[tBuAla]C[Ala(piperidin-4-yl)]N[2Nal]K(DOTA)DCW[αMeP]-NH2; linker 4-10 via CH2)"

# Biological target: T2, DLL3
# Test: SPR KD, biotinylated human DLL3 on streptavidin chip (Table 8)
# Parameters: biotin (biotinylated)
# Conditions: biotinylated human DLL3 on streptavidin sensor chip, 25° C., 1:1 binding model; read-out: SPR KD
# Description: Biotinylated target ligand human DLL3 was immobilized on a streptavidin sensor chip. A reference surface was set up for nonspecific binding and refractive index changes. […] Sensorgram curves were fitted with 1:1 binding model, and affinity and kinetic parameters were obtained using Biacore Insight evaluation 4.0. software.
row,Kd [nM],Molecule
1,< 1,"CC(=O)N[C@@H](Cc1c[nH]c2ccccc12)C(=O)N[C@H](C(=O)N(C)[C@@H](CC(C)(C)C)C(=O)N[C@H]1CSCSC[C@@H](C(=O)N[C@@H](Cc2c[nH]c3ccccc23)C(=O)N2CCC[C@@]2(C)C(=O)O)NC(=O)[C@H](CC(=O)O)NC(=O)[C@H](CCCCNC(=O)CN2CCN(CC(=O)O)CCN(CC(=O)O)CCN(CC(=O)O)CC2)NC(=O)[C@H](Cc2ccc3ccccc3c2)NC(=O)[C@H](CC(N)=O)NC(=O)[C@H](CC2CCNCC2)NC1=O)C(C)O (stereo partly drawn) [compound 443, Ac-W-T-(NMe-tBuAla)-C(1)-[3-(4-piperidinyl)-Ala]-N-(2Nal)-Lys(DOTA)-D-C(1)-W-(aMe-P)-CO2H] (Ac-W[Thr(3ξ)][NMetBuAla]C[Ala(piperidin-4-yl)]N[2Nal]K(DOTA)DCW[αMeP]-OH; linker 4-10 via CH2)"
2,< 1,"CC(=O)N[C@@H](Cc1c[nH]c2ccccc12)C(=O)N[C@H](C(=O)N[C@@H](CC(C)(C)C)C(=O)N[C@H]1CSCSC[C@@H](C(=O)N[C@@H](Cc2c[nH]c3ccccc23)C(=O)N2CCC[C@@]2(C)C(N)=O)NC(=O)[C@H](CC(=O)O)NC(=O)[C@H](CCCCNC(=O)CN2CCN(CC(=O)O)CCN(CC(=O)O)CCN(CC(=O)O)CC2)NC(=O)[C@H](Cc2ccc3ccccc3c2)NC(=O)[C@H](CC(N)=O)NC(=O)[C@H](CC2CCNCC2)NC1=O)[C@@H](C)O [compound 437, Ac-W-T-(t-Bu-Ala)-C(1)-[3-(4-piperidinyl)-Ala]-N-(2Nal)-Lys(DOTA)-D-C(1)-W-(aMe-P)-CONH2] (Ac-WT[tBuAla]C[Ala(piperidin-4-yl)]N[2Nal]K(DOTA)DCW[αMeP]-NH2; linker 4-10 via CH2)"
